This note sets out measurements from US7199147B2, “Rho kinase inhibitors” (Dainippon Sumitomo Pharma Co., Ltd., priority 2001, dated 2007).

The structures appear in SMILES notation. Where a name gives a salt, the structure may show the parent alone.

Take `O=C(CCN1CCCCC1)Nc1ccc2[nH]ncc2c1`: the melting point (commonly the temperature of the solid-liquid transition) was in the range of 178 to 179 °C.
The same measure for `c1cc2[nH]ncc2cc1NCC1CCOCC1`: 293 to 294 °C (dec.); for `CCCCC(=O)N[C@H]1CCC[C@@H](Oc2ccc3[nH]ncc3c2C)C1` (relative stereo): 190 to 193 °C; for `CN(C)[C@H]1CCC[C@H](Oc2ccc3[nH]ncc3c2)C1` (relative stereo): 134 to 135 °C.
`Cc1c(OC2CCN(C3CCCC3)CC2)ccc2[nH]ncc12`: the melting point fell in the range of 140 to 143 °C.
`N[C@H]1CCC[C@H](Oc2ccc3[nH]ncc3c2Cl)C1` (relative stereo) gave a melting point of 142 to 144 °C.
As for `COc1c(OS(C)(=O)=O)ccc2[nH]ncc12` (as salt: methanesulfonate), the melting point was 130 to 131 °C.
For `Cc1c(O[C@H]2CCC[C@H](N)C2)ccc2[nH]ncc12` (relative stereo), the melting point lay in the range of 156 to 160 °C.
For the molecule `CCCN1C2CCC1CC(Nc1ccc3[nH]ncc3c1)C2.Cl.Cl` (stereo not shown), the melting point was 198 to 203 °C.
In the case of `CNc1ccc2[nH]ncc2c1` it was 144 to 146 °C; in that of `c1cc2[nH]ncc2cc1OC1CCCNCC1` (stereo not shown), 159 to 160 °C; in that of `CN(CCCNc1ccc2[nH]ncc2c1)Cc1ccccc1`, 112 to 114 °C.
With `c1ccc(CN2CCC(Nc3ccc4oncc4c3)CC2)cc1`, the melting point fell in the range of 89 to 90 °C.
Consider `Cl.Cl.c1ccc(CN2CCC(Nc3cccc4[nH]ncc34)CC2)cc1`, for which the melting point is 257 to 260 °C (dec.).
The molecule `Cc1c(O[C@H]2CC[C@@H](NC(C)C)CC2)ccc2[nH]ncc12` registered a melting point of 166 to 168 °C.
On to `Cl.Cl.c1cc2[nH]ncc2cc1NC1CN2CCC1CC2` (stereo not shown), for which the melting point was 184 to 188 °C.
Turning to `Cc1c(OC2CCCN(C3CCCC3)CC2)ccc2[nH]ncc12` (stereo not shown), the melting point is 126 to 131 °C.
Consider `O=C(CCOCc1ccccc1)Nc1ccc2[nH]ncc2c1`, for which the melting point was 167 to 169 °C.
In the case of `Cn1cc2cc(NC3CCNCC3)ccc2n1` it was 144 to 147 °C.
`N[C@H]1CCC[C@@H](Oc2cccc3[nH]ncc23)C1` (relative stereo): the melting point is 166 to 168 °C.
Regarding `CC(C)N1CCC(Nc2ccc3[nH]ncc3c2)CC1`, the melting point was 140 to 141 °C.
`NCc1ccc(COc2ccc3[nH]ncc3c2)cc1` returned a melting point of 197 to 198 °C.
The same measure for `CC(C)N1CCC(Oc2ccc3[nH]ncc3c2)CC1`: 125 to 126 °C.
As for `c1cc(OC2CCNCC2)c2cn[nH]c2c1`, the melting point fell in the range of 162 to 165 °C.
With `CC(=O)N1CCC(Oc2ccc3[nH]ncc3c2C)CC1`, the melting point was 161 to 163 °C.
With `O=C1c2ccccc2C(=O)N1[C@H]1CCC[C@H](Oc2ccc3[nH]ncc3c2)C1` (relative stereo), the melting point fell in the range of 197 to 198 °C.
For `CCOC(=O)N1C2CCC1CC(Nc1ccc3[nH]ncc3c1)C2` (stereo not shown), the melting point was 158 to 159 °C.
The same measure for `O=C(NC1CCCN(Cc2ccccc2)C1)c1ccc2[nH]ncc2c1` (stereo not shown): 203 to 204 °C.
`Cc1c(O[C@@H]2CCC[C@H](NCC3CCCC3)C2)ccc2[nH]ncc12` (relative stereo) came in with a melting point of 140 to 142 °C.
The molecule `O=C(NC1CCOCC1)c1ccc2[nH]ncc2c1` gave a melting point of 285 to 286 °C.
Molecule `CN(CCCC(=O)Nc1ccc2[nH]ncc2c1)Cc1ccccc1` showed a melting point of 115 to 117 °C.
`Cc1c(OC2=CC=CNC=C2)ccc2[nH]ncc12` showed a melting point of 157 to 159 °C.
Molecule `COc1ccc(CN[C@H]2CCC[C@@H](Oc3ccc4[nH]ncc4c3C)C2)cc1` (relative stereo) gave a melting point of 164 to 166 °C.
`CSc1c(O[C@H]2CC[C@@H](NC(=O)c3ccccc3)CC2)ccc2[nH]ncc12` yielded a melting point of 146 to 148 °C.
With `c1cc2[nH]ncc2cc1OC1CCOCC1` [Example 365], the melting point was 151 to 153 °C.
In turn, `c1cc2[nH]ncc2cc1OC1CCCCC1` had a melting point of 144 to 146 °C.
The same measure for `CN(c1ccc2[nH]ncc2c1)C1CCNCC1`: 175 to 177 °C; for `Cn1ncc2cc(NC3CCNCC3)ccc21`: 111 to 113 °C; for `NCc1cccc(COc2ccc3[nH]ncc3c2)c1`: 179 to 183 °C.
As for `CCC(=O)N[C@H]1CC[C@@H](Oc2ccc3[nH]ncc3c2SC)CC1`, the melting point was 155 to 156 °C.
Consider `c1cc2[nH]ncc2cc1OC1CCCC1`, for which the melting point lay within 141 to 142 °C.
In the case of `c1cc2[nH]ncc2cc1NCCC1CCNCC1` it was 184 to 186 °C (dec.); in that of `CN1CCCC(NC(=O)c2ccc3[nH]ncc3c2)C1` (stereo not shown), 228 to 229 °C; in that of `O=C(CCC(F)(F)F)Nc1ccc2[nH]ncc2c1`, 243 to 244 °C (dec.).
As for `O=C(NC1CCCNC1)c1ccc2[nH]ncc2c1` (stereo not shown), the melting point was 265 to 266 °C.
In the case of `Cl.Cl.OCCN1C2CCC1CC(Nc1ccc3[nH]ncc3c1)C2` (stereo not shown), the melting point lay in the range of 154 to 157 °C.
As for `O=C(O)C(F)(F)F.c1cc2[nH]ncc2cc1NC1CCOCC1`, the melting point is 242 to 245 °C (dec.).
`Cc1c(O[C@H]2CC[C@H](N)CC2)ccc2[nH]ncc12` displayed a melting point of 150 to 152 °C.
In turn, `Cn1cc2cc(NC3CCN(Cc4ccccc4)CC3)ccc2n1` came in with a melting point of 108 to 110 °C.
For the molecule `CC(=O)N1CCC(Nc2ccc3[nH]ncc3c2)CC1`, the melting point was 193 to 195 °C (dec.).
`O=S(=O)(Nc1ccc2[nH]ncc2c1)C1CCNCC1`: the melting point is 120 to 123 °C.
Regarding `c1cc2cn[nH]c2cc1NC1CCNCC1`, the melting point is 196 to 197 °C (dec.).
`O=C(CC1CCN(Cc2ccccc2)CC1)Nc1ccc2[nH]ncc2c1` returned a melting point of 195 to 197 °C.
Regarding `N#Cc1cccc(COc2ccc3[nH]ncc3c2)c1`, the melting point fell in the range of 158 to 161 °C.
In the case of `c1ccc(CN2CCN(Cc3ccc4[nH]ncc4c3)CC2)cc1` it was 147 to 149 °C; in that of `CN(CCC(=O)Nc1ccc2[nH]ncc2c1)Cc1ccccc1`, 140 to 141 °C; in that of `c1cc2[nH]ncc2cc1NC1CC2CCC(C1)N2` (stereo not shown), 236 to 238 °C.
`COCCC(=O)Nc1ccc2[nH]ncc2c1` yielded a melting point of 173 to 174 °C.
`Cl.Cl.c1cc(NC2CCNCC2)c2cn[nH]c2c1` showed a melting point of 270 to 271 °C.
As to `COc1ccc2[nH]ncc2c1C`, the melting point lay within 148 to 149 °C.
Consider `Cc1c(O[C@@H]2CCC[C@H](NC(=O)C3CCCC3)C2)ccc2[nH]ncc12` (relative stereo), for which the melting point was 242 to 244 °C (dec.).
